Measured values taken from patent US20220073536A1 (Rigel Pharmaceuticals, Inc., priority 2003, published 2022).
Structures can show the parent of a compound that is named as a salt. Where two headings read alike, the source gives them in different places.

Tested on: cultured human mast cells (CHMC)
Experiment: CHMC low cell density IgE activation: tryptase assay
Assay type: cell-based
Conditions: low cell density CHMC, IgE activation, tryptase
How it was run: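 Anti-IgE-driven degranulation of cultured human mast cells at low density, 1000–1500 cells/well, was induced over 30 min at 37 °C. It was scored by supernatant tryptase activity on a fluorogenic substrate.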

[1] = 3 pt, read-out: LD Tryptase, CHMC, IgE, 3 pt
[2] = 8 pt, read-out: LD Tryptase, CHMC, IgE, 8 pt
[3] = Homo sapiens, Mast cell, 8 pt, read-out: LD Tryptase, CHMC, IgE, 8 pt
[4] = Homo sapiens, Mast cell, 3 pt, read-out: LD Tryptase, CHMC, IgE, 3 pt

IC50 [1] [µM] | IC50 [3] [µM] | IC50 [4] [µM] | SMILES | further results
< 10 |  |  | COc1cc(Nc2ncc(F)c(Nc3ccc4c(n3)NC(=O)C(C)(C)O4)n2)cc(OC)c1OC.O=S(=O)(O)c1ccc(O)cc1 [Compound 676, N4-(2,2-Dimethyl-3-oxo-4H-5-pyrid[1,4]oxazin-6-yl)-5-fluoro-N2-(3,4,5-trimethoxyphenyl)-2,4-pyrimidinediamine 4-Hydroxybenzenesulfonic Acid Salt] | IC50 [2]: < 10 µM
< 10 |  |  | COc1cc(Nc2ncc(F)c(Nc3ccc4c(n3)NC(=O)C(C)(C)O4)n2)cc(OC)c1OC.O=S(=O)(O)c1cccnc1 [Compound 678, N4-(2,2-Dimethyl-3-oxo-4H-5-pyrid[1,4]oxazin-6-yl)-5-fluoro-N2-(3,4,5-trimethoxyphenyl)-2,4-pyrimidinediamine 0.5 Pyridine-3-sulfonic Acid Salt] | IC50 [2]: < 10 µM
< 10 |  |  | CCc1ccc(S(=O)(=O)O)cc1.COc1cc(Nc2ncc(F)c(Nc3ccc4c(n3)NC(=O)C(C)(C)O4)n2)cc(OC)c1OC [Compound 679, N4-(2,2-Dimethyl-3-oxo-4H-5-pyrid[1,4]oxazin-6-yl)-5-fluoro-N2-(3,4,5-trimethoxyphenyl)-2,4-pyrimidinediamine p-Ethylbenzenesulfonic Acid Salt] | IC50 [2]: < 10 µM
< 10 |  |  | CNC(=O)Cn1ccc2cc(Nc3ncc(F)c(Nc4ccc5c(n4)NC(=O)C(C)(C)O5)n3)ccc21 [Compound 683, N4-(2,2-Dimethyl-3-oxo-4H-5-pyrid[1,4]oxazin-6-yl)-5-fluoro-N2-[1-(N-methylamino)carbonylmethyleneindol-5-yl]-2,4-pyrimidinediamine] | IC50 [2]: < 10 µM
< 10 |  |  | Cc1cc(Nc2ncc(F)c(Nc3ccc4c(n3)NC(=O)C(C)(C)O4)n2)cc(C)c1Cl [Compound 684, N2-(4-Chloro-3,5-dimethylphenyl)-N4-(2,2-dimethyl-3-oxo-4H-5-pyrid[1,4]oxazin-6-yl)-5-fluoro-2,4-pyrimidinediamine p-Toluenesulfonic Acid Salt] | 
< 10 |  |  | CC1(C)Oc2ccc(Nc3nc(Nc4cc(Cl)c(O)c(Cl)c4)ncc3F)nc2NC1=O [Compound 686, N4-(2,2-Dimethyl-3-oxo-4H-5-pyrid[1,4]oxazin-6-yl)-N2-(3,5-dichloro-4-hydroxyphenyl)-5-fluoro-2,4-pyrimidinediamine] | IC50 [2]: < 10 µM
< 10 |  |  | CN1C(=O)C(C)(C)Oc2ccc(Nc3ncc(F)c(Nc4ccc5c(n4)N(C)C(=O)C(C)(C)O5)n3)nc21 [Compound 687, N2,N4-Bis (3-oxo-2,2,4-trimethyl-5-pyrid[1,4]oxazin-6-yl)-5-fluoro-2,4-pyrimidinediamine] | 
> 10 |  |  | COC(=O)CN1C(=O)C(C)(C)Oc2ccc(Nc3ccnc(Nc4ccc5c(n4)N(CC(=O)OC)C(=O)C(C)(C)O5)n3)nc21 [Compound 688, N2,N4-Bis (2,2-dimethyl-4-carbomethoxymethyl-3-oxo-5-pyrid[1,4]oxazin-6-yl)-2,4-pyrimidinediamine] | 
 |  |  | COc1cc(Nc2ncc(F)c(Nc3ccc4c(n3)N(C)C(=O)C(C)(C)O4)n2)cc(OC)c1OC [Compound 689, 5-Fluoro-N4-(3-oxo-2,2,4-trimethyl-5-pyrid[1,4]oxazin-6-yl)-N2-(3,4,5-trimethoxyphenyl)-2,4-pyrimidinediamine] | IC50 [2]: < 10 µM
 |  |  | COC(=O)CN1C(=O)C(C)(C)Oc2ccc(Nc3nc(Nc4cc(OC)c(OC)c(OC)c4)ncc3F)nc21 [Compound 690, N4-(2,2-Dimethyl-4-carbomethoxymethyl-3-oxo-5-pyrid[1,4]oxazin-6-yl)-5-fluoro-N2-(3,4,5-trimethoxyphenyl)-2,4-pyrimidinediamine] | IC50 [2]: < 10 µM
< 10 |  |  | COC(=O)CN1C(=O)C(C)(C)Oc2ccc(N(CC(=O)OC)c3nc(Nc4cc(OC)c(OC)c(OC)c4)ncc3F)nc21 [Compound 691, N4-(2,2-Dimethyl-4-carbomethoxymethyl-3-oxo-5-pyrid[1,4]oxazin-6-yl)-5-fluoro-N4-carbomethoxymethyl-N2-(3,4,5-trimethoxyphenyl)-2,4-pyrimidinediamine] | 
< 10 |  |  | COc1cc(Nc2ncc(F)c(Nc3ccc4c(n3)NC(=O)C(C)(C)O4)n2)cc(OC)c1OCCN1CCOCC1 [Compound 692, N2-[3,5-Dimethoxy-4-(2-(N-morpholino)ethyloxo)phenyl]-N4-(2,2-dimethyl-3-oxo-4H-5-pyrid[1,4]oxazin-6-yl)-5-fluoro-2,4-pyrimidinediamine] | IC50 [2]: < 10 µM
< 10 |  |  | CC1(C)Oc2ccc(Nc3ncc(F)c(Nc4ccc5c(n4)NC(=O)C(C)(C)O5)n3)nc2NC1=O [Compound 693, N2, N4-Bis (2,2-dimethyl-3-oxo-4H-5-pyrid[1,4]oxazin-6-yl)-5-fluoro-2,4-pyrimidinediamine] | 
 | < 10 |  | CCCn1ncc2cc(Nc3ncc(F)c(Nc4ccc(OC)c(Cl)c4)n3)ccc21 [Compound 702, N4-(3-Chloro-4-methoxyphenyl)-5-fluoro-N2-(1-n-propylindazol-5-yl)-2,4-pyrimidinediamine] | 
 |  | < 10 | CCCn1ncc2cc(Nc3ncc(F)c(Nc4ccc(Cl)c(Cl)c4)n3)ccc21 [Compound 703, N4-(3,4-Dichlorophenyl)-5-fluoro-N2-(1-n-propylindazol-5-yl)-2,4-pyrimidinediamine] | 
 | < 10 |  | CCCn1ncc2cc(Nc3ncc(F)c(Nc4ccc5c(c4)NC(=O)C(C)(C)O5)n3)ccc21 [Compound 704, N4-(2,2-Dimethyl-3-oxo-4H-benz[1,4]oxazin-6-yl)-5-fluoro-N2-(1-n-propylindazol-5-yl)-2,4-pyrimidinediamine] | 

IC50 [1] [µM] | IC50 [3] [µM] | IC50 [4] [µM] | SMILES | further results
 | < 10 |  | CCCn1ncc2cc(Nc3ncc(F)c(Nc4ccc(F)c(OC)c4)n3)ccc21 [Compound 705, 5-Fluoro-N4-(4-fluoro-3-methoxyphenyl)-N2-(1-n-propylindazol-5-yl)-2,4-pyrimidinediamine] | 
 | < 10 | < 10 | CCCn1ncc2ccc(Nc3ncc(F)c(Nc4ccc(Cl)c(Cl)c4)n3)cc21 [Compound 707, N4-(3,4-Dichlorophenyl)-5-fluoro-N2-(1-n-propylindazol-6-yl)-2,4-pyrimidinediamine] | 
 | < 10 |  | CCCn1ncc2ccc(Nc3ncc(F)c(Nc4ccc5c(c4)NC(=O)C(C)(C)O5)n3)cc21 [Compound 708, N4-(2,2-Dimethyl-3-oxo-4H-benz[1,4]oxazin-6-yl)-5-fluoro-N2-(1-n-propylindazol-6-yl)-2,4-pyrimidinediamine] | 
 | < 10 |  | CCCn1ncc2ccc(Nc3ncc(F)c(Nc4ccc(F)c(OC)c4)n3)cc21 [Compound 709, 5-Fluoro-N4-(4-fluoro-3-methoxyphenyl)-N2-(1-n-propylindazol-6-yl)-2,4-pyrimidinediamine] | 
 |  | < 10 | CCCCn1ncc2cc(Nc3ncc(F)c(Nc4ccc(OC)c(Cl)c4)n3)ccc21 [Compound 710, N2-(1-n-Butylindazol-5-yl)-N4-(3-chloro-4-methoxyphenyl)-5-fluoro-2,4-pyrimidinediamine] | 
 |  | < 10 | CCCCn1ncc2cc(Nc3ncc(F)c(Nc4ccc(Cl)c(Cl)c4)n3)ccc21 [Compound 711, N2-(1-n-Butylindazol-5-yl)-N4-(3,4-dichlorophenyl)-5-fluoro-2,4-pyrimidinediamine] | 
 | < 10 |  | CCCCn1ncc2cc(Nc3ncc(F)c(Nc4ccc5c(c4)NC(=O)C(C)(C)O5)n3)ccc21 [Compound 712, N2-(1-n-Butylindazol-5-yl)-N4-(2,2-dimethyl-3-oxo-4H-benz[1,4]oxazin-6-yl)-5-fluoro-2,4-pyrimidinediamine] | 
 | < 10 | < 10 | CCCCn1ncc2cc(Nc3ncc(F)c(Nc4ccc(F)c(OC)c4)n3)ccc21 [Compound 713, N2-(1-n-Butylindazol-5-yl)-5-fluoro-N4-(4-fluoro-3-methoxyphenyl)-2,4-pyrimidinediamine] | 
 | < 10 |  | CCCCn1ncc2ccc(Nc3ncc(F)c(Nc4ccc(OC)c(Cl)c4)n3)cc21 [Compound 714, N2-(1-n-Butylindazol-6-yl)-N4-(3-chloro-4-methoxyphenyl)-5-fluoro-2,4-pyrimidinediamine] | 
 |  | < 10 | CCCCn1ncc2ccc(Nc3ncc(F)c(Nc4ccc(Cl)c(Cl)c4)n3)cc21 [Compound 715, N2-(1-n-Butylindazol-6-yl)-N4-(3,4-dichlorophenyl)-5-fluoro-2,4-pyrimidinediamine] | 
 | < 10 |  | CCCCn1ncc2ccc(Nc3ncc(F)c(Nc4ccc5c(c4)NC(=O)C(C)(C)O5)n3)cc21 [Compound 716, N2-(1-n-Butylindazol-6-yl)-N4-(2,2-dimethyl-3-oxo-4H-benz[1,4]oxazin-6-yl)-5-fluoro-2,4-pyrimidinediamine] | 
 |  | < 10 | CCCCn1ncc2ccc(Nc3ncc(F)c(Nc4ccc(F)c(OC)c4)n3)cc21 [Compound 717, N2-(1-n-Butylindazol-6-yl)-5-fluoro-N4-(4-fluoro-3-methoxyphenyl)-2,4-pyrimidinediamine] | 
 |  | < 10 | COc1ccc(Nc2nc(Nc3ccc4c(cnn4CC4CCCCC4)c3)ncc2F)cc1Cl [Compound 718, N4-(3-Chloro-4-methoxyphenyl)-N2-[1-(cyclohexylmethyl)indazol-5-yl]-5-fluoro-2,4-pyrimidinediamine] | 
 |  | < 10 | Fc1cnc(Nc2ccc3c(cnn3CC3CCCCC3)c2)nc1Nc1ccc(Cl)c(Cl)c1 [Compound 719, N2-[1-(Cyclohexylmethyl)indazol-5-yl]-N4-(3,4-dichlorophenyl)-5-fluoro-2,4-pyrimidinediamine] | 
 | < 10 |  | CC1(C)Oc2ccc(Nc3nc(Nc4ccc5c(cnn5CC5CCCCC5)c4)ncc3F)cc2NC1=O [Compound 720, N2-[1-(Cyclohexylmethyl)indazol-5-yl]-N4-(2,2-dimethyl-3-oxo-4H-benz[1,4]oxazin-6-yl)-5-fluoro-2,4-pyrimidinediamine] | 
 |  | < 10 | COc1cc(Nc2nc(Nc3ccc4c(cnn4CC4CCCCC4)c3)ncc2F)ccc1F [Compound 721, N2-[1-(Cyclohexylmethyl)indazol-5-yl)-5-fluoro-N4-(4-fluoro-3-methoxyphenyl)-2,4-pyrimidinediamine] | 
